# Results as given in patent US6815460B2, “Process for preparing prodrugs of benzenesulfonamide-containing cox-2 inhibitors” (Pharmacia Corporation, priority 1996, dated 2004).
# Structures can show the parent of a compound that is named as a salt.
row,SMILES,melting point
1,"Cc1onc(-c2ccccc2)c1-c1ccc(S(=O)(=O)NCC(=O)O)cc1.O=C(O)O [Example 79, N-[[4-(5-Methyl-3-phenylisoxazol-4-yl)phenyl]sulfonyl]glycine]",242 to 248 °C
2,"CCCC(=O)NS(=O)(=O)c1ccc(-c2c(-c3ccccc3)noc2C)cc1 [Example 24, N-[[4-(5-Methyl-3-phenylisoxazol-4-yl)phenyl]sulfonyl]butanamide]",173.2 °C
3,"CC(=O)NS(=O)(=O)c1ccc(-c2c(-c3cccc(F)c3)noc2C)cc1 (as salt: sodium) [Example 13, N-[[4-[3-(3-Fluorophenyl)-5-methylisoxazol-4-yl]phenyl]sulfonyl]acetamide]",112 to 131 °C
4,CCC(=O)NS(=O)(=O)c1ccc(C2=C(c3ccccc3)COC2=O)cc1 [Example 83],182.3 to 183.4 °C
5,"CC(=O)NS(=O)(=O)c1ccc(-c2c(-c3ccccc3)noc2COC(C)=O)cc1 [Example 73, N-[[4-[5-Acetoxymethyl-3-phenylisoxaxzol-4-yl]phenyl]sulfonyl]acetamide]",137 to 139 °C
6,"CC(=O)NS(=O)(=O)c1ccc(-c2oc(C)nc2-c2ccccc2)cc1 (as salt: sodium) [Example 49, N-[[4-(2-Methyl-4-phenyloxazol-5-yl)phenyl]sulfonyl]acetamide, Sodium Salt]",259.9 to 260 °C
7,CC(=O)NS(=O)(=O)c1ccc(-n2nc(C(F)(F)F)cc2-c2ccc(Cl)cc2)cc1.[Na],269.8 to 272 °C
8,"CCCCC(=O)NS(=O)(=O)c1ccc(-c2c(-c3ccccc3)noc2C)cc1 [Example 26, N-[[4-(5-Methyl-3-phenylisoxazol-4-yl)phenyl]sulfonyl]pentanamide]",134.1 to 136.5 °C
9,CCOCC(=O)NS(=O)(=O)c1ccc(-c2c(-c3ccccc3)noc2C)cc1.[Na],207.2 to 210 °C
10,"CC(=O)NS(=O)(=O)c1ccc(-c2c(-c3ccccc3)noc2C)cc1 [Example 39, N-[[4-[5-Methyl-3-phenylisoxazol-4-yl]phenyl]sulfonyl]acetamide]",169.3 to 170.6 °C
11,"CCCC(=O)NS(=O)(=O)c1ccc(-n2cc(C(F)(F)F)nc2-c2cccnc2C)cc1 [Example 9, N-[[4-[2-(2-Methylpyridin-3-yl)-4-(trifluoromethyl)-1H-imidazol-1-yl]phenyl]sulfonyl]butanamide]",250 to 252 °C
12,"CCC(=O)NS(=O)(=O)c1ccc(-n2nc(C(F)(F)F)cc2-c2ccc(Cl)cc2)cc1 [Example 33, N-[[4-[5-(4-Chlorophenyl)-3-(trifluoromethyl)-1H-pyrazol-1-yl]phenyl]sulfonyl]propanamide]",77.9 to 85.1 °C
13,"COCCC(=O)NS(=O)(=O)c1ccc(-c2c(-c3ccccc3)noc2C)cc1 [Example 29, 3-Methoxy-N-[[4-(5-methyl-3-phenylisoxazol-4-yl)phenyl]sulfonyl]propanamide]",139.7 to 140.9 °C
14,"Cc1onc(-c2ccccc2)c1-c1ccc(S(=O)(=O)NC(=O)CCC(=O)O)cc1 [Example 58, 4-[[[4-(5-Methyl-3-phenylisoxazol-4-yl)phenyl]sulfonyl]amino]-4-oxobutanoic Acid]",158.4 to 165.4 °C
15,"CC(=O)NS(=O)(=O)c1ccc(-n2cc(C(F)(F)F)nc2-c2cncc(C)c2)cc1 [Example 3, N-[[4-[2-(5-Methylpyridin-3-yl)-4-(trifluoromethyl)-1H-imidazol-1-yl]phenyl]sulfonyl]acetamide]",268 to 270 °C
16,"CNS(=O)(=O)c1ccc(C2=C(c3ccc(F)cc3)CCC2)cc1 [Example 64, 4-[2-(4-Fluorophenyl)cyclopenten-1-yl]-N-methylbenzenesulfonamide]",121 to 122 °C
17,"CC(=O)NS(=O)(=O)c1ccc(-n2cc(C(F)(F)F)nc2-c2cc(C)cc(Cl)c2)cc1 [Example 11, N-[[4-[2-(3-Chloro-5-methylphenyl)-4-(trifluoromethyl)-1H-imidazol-1-yl]phenyl]sulfonyl]acetamide]",232 to 235 °C
18,"CCC(=O)[N-]S(=O)(=O)c1ccc(-n2cc(C(F)(F)F)nc2-c2cccnc2C)cc1.[Na+] [Example 85, N-[[4-(2-(2-Methylpyridin-3-yl)-4-trifluoromethylimidazol-1-yl]phenyl]sulfonyl]propanamide, Sodium Salt]",298 °C (dec.)
19,"CC(=O)NS(=O)(=O)c1ccc(-n2cc(C(F)(F)F)nc2-c2cccnc2C)cc1 [Example 5, N-[[4-[2-(2-Methylpyridin-3-yl)-4-(trifluoromethyl)-1H-imidazol-1-yl]phenyl]sulfonyl]acetamide]",243 to 245 °C
20,"CCCC(=O)NS(=O)(=O)c1ccc(-n2cc(C(F)(F)F)nc2-c2cncc(C)c2)cc1 [Example 7, N-[[4-[2-(5-Methylpyridin-3-yl)-4-(trifluoromethyl)-1H-imidazol-1-yl]phenyl]sulfonyl]butanamide]",203 to 204 °C
21,"CNS(=O)(=O)c1ccc(-n2cccc2-c2ccc(F)cc2)cc1 [Example 78, 4-[2-(4-Fluorophenyl)-1H-pyrrol-1-yl]-N-methylbenzenesulfonamide]",174 °C
22,COc1ccc2c(c1F)CSc1c(C(F)F)nn(-c3ccc(S(=O)(=O)NC(C)=O)cc3)c1-2.[Na],> 300 °C
23,"Cc1onc(-c2ccccc2)c1-c1ccc(S(=O)(=O)NC(=O)C(C)(C)C)cc1 [Example 21, 2,2-Dimethyl-N-[[4-(5-methyl-3-phenylisoxazol-4-yl)phenyl]sulfonyl]propanamide]",190.5 to 191.1 °C

# Next, values leading:
row,melting point,SMILES
1,136.9 to 141 °C,"CCC(=O)NS(=O)(=O)c1ccc(-c2c(-c3ccccc3)noc2C(F)F)cc1 [Example 54, N-[[4-[5-(Difluoromethyl)-3-phenylisoxazol-4-yl]phenyl]sulfonyl]propanamide]"
2,111 to 122 °C,"Cc1onc(-c2ccccc2)c1-c1ccc(S(=O)(=O)NC=O)cc1 [Example 60, N-[[4-(5-Methyl-3-phenylisoxazol-4-yl)phenyl]sulfonyl]formamide]"
3,216 °C (dec.),"Cc1onc(-c2ccccc2)c1-c1ccc(S(=O)(=O)NCC(=O)[O-])cc1.[Na+] [Example 80, N-[[4-(5-Methyl-3-phenylisoxazol-4-yl)phenyl]sulfonyl]glycine, Sodium Salt]"
4,94 to 103 °C,"CC(=O)NS(=O)(=O)c1ccc(-c2c(-c3ccccc3)noc2CO)cc1 [Example 74, N-[[4-[5-Hydroxymethyl-3-phenylisoxaxzol-4-yl]phenyl]sulfonyl]acetamide]"
5,173 to 175 °C,"COc1ccc(-c2cc(C(F)F)nn2-c2ccc(S(=O)(=O)NC(C)=O)cc2)cc1F [Example 46, N-[[4-[3-(Difluoromethyl)-5-(3-fluoro-4-methoxyphenyl)-1H-pyrazol-1-yl]phenyl]sulfonyl]acetamide]"
6,220.7 to 221 °C,"CC(=O)NS(=O)(=O)c1ccc(-c2oc(C)nc2-c2ccccc2)cc1 [Example 48, N-[[4-(2-Methyl-4-phenyloxazol-5-yl)phenyl]sulfonyl]acetamide]"
7,278 to 281 °C,"CC(=O)[N-]S(=O)(=O)c1ccc(-n2cc(C(F)(F)F)nc2-c2cncc(C)c2)cc1.[Na+] [Example 4, N-[[4-[2-(5-Methylpyridin-3-yl)-4-(trifluoromethyl)-1H-imidazol-1-yl]phenyl]sulfonyl]acetamide, Sodium Salt]"
8,161.9 to 162.7 °C,"CC(=O)NS(=O)(=O)c1ccc(-n2nc(C(F)(F)F)cc2-c2ccc(Cl)cc2)cc1 [Example 37, N-[[4-[5-(4-Chlorophenyl)-3-(trifluoromethyl)-1H-pyrazol-1-yl]phenyl]sulfonyl]acetamide]"
9,244 to 246 °C,"CC(=O)NS(=O)(=O)c1ccc(-n2cc(C(F)(F)F)nc2-c2cccnc2)cc1 [Example 1, N-[[4-[2-(3-Pyridinyl)-4-(trifluoromethyl)-1H-imidazol-1-yl]phenyl]sulfonyl]acetamide]"
10,127 to 129 °C,"CC(=O)NS(=O)(=O)c1ccc(C2=C(c3ccc(F)c(Cl)c3)CCC2)cc1 [Example 65, N-[[4-[2-(3-Chloro-4-fluorophenyl)cyclopenten-1-yl]phenyl]sulfonyl]acetamide]"
11,273.5 to 277.7 °C,"CCCC(=O)NS(=O)(=O)c1ccc(-c2c(-c3ccccc3)noc2C)cc1 (as salt: sodium) [Example 25, N-[[4-(5-Methyl-3-phenylisoxazol-4-yl)phenyl]sulfonyl]butanamide, Sodium Salt]"
12,230.7 to 234.7 °C,"Cc1onc(-c2ccccc2)c1-c1ccc(S(=O)(=O)NC(=O)CN)cc1 [Example 81, 2-Amino-N-[[4-(5-methyl-3-phenylisoxazol-4-yl)phenyl]sulfonyl]acetamide]"
13,171.1 to 172.3 °C,"COC(=O)C(=O)NS(=O)(=O)c1ccc(-c2c(-c3ccccc3)noc2C)cc1 [Example 50, Methyl [[[4-(5-methyl-3-phenylisoxazol-4-yl)phenyl]sulfonyl]amino]oxoacetate]"
14,154.9 to 155.9 °C,"CCCC(=O)NS(=O)(=O)c1ccc(-c2c(-c3ccccc3)noc2C(F)F)cc1 [Example 56, N-[[4-[5-(Difluoromethyl)-3-phenylisoxazol-4-yl]phenyl]sulfonyl]butanamide]"
15,115 to 115.6 °C,"Cc1onc(-c2ccccc2)c1-c1ccc(S(=O)(=O)NC(=O)C(C)C)cc1 [Example 15, 2-Methyl-N-[[4-(5-methyl-3-phenylisoxazol-4-yl)phenyl]sulfonyl]propanamide]"
16,131.3 to 132.2 °C,"CCOCC(=O)NS(=O)(=O)c1ccc(-c2c(-c3ccccc3)noc2C)cc1 [Example 31, 2-Ethoxy-N-[[4-(5-methyl-3-phenylisoxazol-4-yl)phenyl]sulfonyl]acetamide]"
17,208.8 to 210.2 °C,"Cc1onc(-c2ccccc2)c1-c1ccc(S(=O)(=O)NC(=O)c2ccccc2)cc1 [Example 19, N-[[4-(5-Methyl-3-phenylisoxazol-4-yl)phenyl]sulfonyl]benzamide]"
18,153.5 to 157.1 °C,CCC(=O)NS(=O)(=O)c1ccc(-c2c(-c3ccccc3)noc2CO)cc1.[Na]
19,168 to 171 °C,"Cc1onc(-c2ccccc2)c1-c1ccc(S(=O)(=O)NC(=O)OC(C)(C)C)cc1 [Example 62, 1,1-Dimethylethyl N-[[4-(5-methyl-3-phenylisoxazol-4-yl)phenyl]sulfonyl]carbamate]"
